Experimental data reported in ChEMBL document CHEMBL1133712, “Monocyclic L-nucleosides with type 1 cytokine-inducing activity” (2000).

Tests used:
Assay type in all cases: functional, Homo sapiens
Set-up in all cases: concentration or dose not given beside the values
[1] = Compounds was tested for the effect of L-nucleosides of ribavirin on SEB (staphylococcal enterotoxin B)-stimulated T-cell expression of the type 1 cytokine IFN-gamma
[2] = Compounds was tested for the effect of L-nucleosides of ribavirin on SEB (staphylococcal enterotoxin B)-stimulated T-cell expression of the type 1 cytokine TNF-alpha
[3] = Compounds was tested for the effect of L-nucleosides of ribavirin on SEB (staphylococcal enterotoxin B)-stimulated T-cell expression of the type 1 cytokine IL-2.

SMILES	Control [1]	Control [2]	Control [3]
NC(=O)c1ncn([C@H]2O[C@@H](CO)[C@@H](O)[C@@H]2O)n1	119%	132%	100%
NC(=O)c1ncn([C@H]2O[C@@H](CO)C[C@@H]2O)n1	114%	109%	115%
NC(=O)c1ncn([C@@H]2O[C@H](CO)[C@@H](O)[C@H]2O)n1 [RIBAVIRIN]	131%	124%	143%
NC(=O)c1ncn([C@H]2O[C@@H](CO)[C@H](O)[C@@H]2O)n1	122%	144%	131%
NC(=O)c1ncn([C@@H]2C[C@@H](O)[C@H](CO)O2)n1	110%	119%	108%
Cl.N=C(N)c1ncn([C@H]2O[C@@H](CO)[C@H](O)[C@@H]2O)n1	128%	120%	133%
